Test results as given in patent US20260130906A1, “THERAPY COMPRISING ANTI-CD19 ANTIBODY AND SUMO-ACTIVATING ENZYME INHIBITOR” (TAKEDA PHARMACEUTICAL COMPANY LIMITED, priority 2021, published 2026).

What was measured:
[1] = tested on: Daudi human xenograft tumor model; assay: Study 1: Daudi human xenograft tumor model; assay type: in vivo, CB17 SCID mice; conditions: for tumor growth inhibition as a single agent (in words): Daudi human Burkitt's lymphoma mouse model; for GRI % / Tumor volume on Day 21 (±SEM): Daudi; for GRI %: Day 21, vs vehicle; for Tumor volume on Day 21 (±SEM): in mm³ (unit assumed)
Experimental: (§1) The differences in the tumor growth trends over time between pairs of treatment groups were assessed by fitting each animal's data to a simple exponential growth model and comparing the mean growth rates of the two groups, as described in more detail below. The difference in the growth rates was summarized by the GRI, which is the reduction in growth rate experienced by the treatment group relative to that of the reference group, expressed as a fraction of the vehicle growth rate.
(§2) A GRI greater than 100% is interpreted as tumor regression when the vehicle group is the same as the reference group. A negative value of the GRI means that the tumors in the treatment group grew faster than the tumors in the reference group. Statistical significance was determined using an unpaired t-test.
Low tumor volumes can cause problems with the data analysis, so all measurements below 25 cubic mm (including 0 values) were excluded from the analysis. After this exclusion step, the tumor volume was assumed to follow an exponential growth model. […]
Daudi is a human Burkitt's Lymphoma cell line. A Daudi human xenograft tumor model was generated by subcutaneous inoculation in the flank of 9 week old female CB17 SCID mice (Charles River Laboratories, Wilmington, MA) with 2.0×10^6 Daudi cells (cell suspension in 0.1 ml RPMI with Matrigel 1:1). When the mean tumor volume reached approximately 140 mm^3, the animals were randomized into one vehicle control group and seven treatment groups (n=7/group) as described in Table 1a. Mice were then dosed with 20% HPβCD or Compound I-263a and/or tafasitamab over a 3 week period. In the combination treatment groups, I-263a was administered first, followed immediately by the administration of tafasitamab. Tumor growth and body weight were measured twice per week during the treatment and post-treatment periods, and mice were humanely euthanized once they had reached their humane endpoint. Tumors were measured using Vernier calipers and volumes were calculated using standard equation: V=W^2×L/2, where V=volume, W=width, and L=length for the tumor.
A 0.8625 mg/mL stock solution of I-263a was formulated weekly in 20% HPβCD and administered intravenously (IV) based on an average body weight using a 0.2 mL dosing volume. Final dose of I-263a received was 7.5 mg/kg. I-263a was administered on a BIW schedule for 3 weeks (Days 0, 4, 7, 11, 14, 18). Tafasitamab was formulated prior to each injection in 0.9% saline at 0.354, 1.15, and 2.3 mg/mL. Final dose of tafasitamab received was 3, 10, or 20 mg/kg based on average body weight. Tafasitamab was administered intraperitoneally (IP) using a 0.2 mL dosing volume, on a BIW schedule for 3 weeks (Days 0, 4, 7, 11, 14, 18). The vehicle group received IV treatment with the vehicle for I-263a (20% HPβCD) on a BIW schedule for three weeks (Days 0, 4, 7, 11, 14, 18).
Statistical analysis for growth rate inhibition was performed on data up to and including Day 21.

[2] = tested on: OCI-Ly10 human xenograft tumor model; assay: Study 2: OCI-Ly10 human xenograft tumor model; assay type: in vivo, CB17 SCID mice; conditions: for GRI % / Tumor volume on Day 25 (±SEM): OCI-Ly10; for GRI %: Day 25, vs vehicle; for Tumor volume on Day 25 (±SEM): in mm³ (unit assumed); for tumor growth inhibition as a single agent (in words): human OCI-Ly10 DLBCL mouse model
Experimental: as §1, §2
Low tumor volumes can cause problems with the data analysis, so all measurements below 25 cubic mm (including 0 values) were excluded from the analysis. After this exclusion step, the tumor volume was assumed to follow an exponential growth model. More specifically, for a given animal and treatment group,
Combination analysis was performed to determine if there was a benefit from combining drug treatments. This analysis was also based on the estimated tumor growth rates. The measure of synergy was defined as
Here, μAB, μA, μB, and μControl are the mean growth rates for the combination, drug A, drug B, and control groups, respectively. As before, μV is the mean tumor growth rate for the vehicle group, which in most cases is the same as the control group. The standard error of the synergy score was calculated as the square root of the sum of squared standard errors across the four groups. The degrees of freedom were estimated using the Welch-Satterthwaite equation. A hypothesis test was performed to determine if the synergy score differed from 0. P-values were calculated by dividing the synergy score by its standard error and tested against a t-distribution (two-tailed) with the above-calculated degrees of freedom. A P value of less than 0.05 is statistically significant.
The combination results can be interpreted as follows. Statistically significant negative synergy scores indicate a synergistic combination (“Syn.”). Statistically significant positive synergy scores indicate a sub-additive combination (“Sub-add.”) when the combination performs better (i.e. has a lower growth rate) than the best performing single agent. Statistically significant positive synergy scores indicate an antagonistic combination (“Antag.”) when the combination performs worse than the best performing single agent. Scores that are not statistically significant should be considered additive (“Add.”).
OCI-Ly10 is a human DLBCL cell line. An OCI-Ly10 human xenograft tumor model was generated by subcutaneous inoculation in the flank of 8 week old female CB17 SCID mice (Charles River Laboratories, Wilmington, MA) with 4.0×10^6 OCI-Ly10 cells (cell suspension in 0.1 ml IMDM with Matrigel 1:1). When the mean tumor volume reached approximately 175 mm^3, the animals were randomized into one vehicle control group and 7 treatment groups (n=7/group) as described in Table 2a. Mice were then dosed with 20% HPβCD or Compound I-263a and/or tafasitamab over a 3 week period. In the combination treatment groups, I-263a was administered first, followed immediately by the administration of tafasitamab. Tumor growth and body weight were measured twice per week during the treatment and post-treatment periods, and mice were humanely euthanized once they had reached their humane endpoint. Tumors were measured using Vernier calipers and volumes were calculated using standard equation: V=W^2×L/2, where V=volume, W=width, and L=length for the tumor.
A 0.75 mg/mL stock solution of I-263a was formulated weekly in 20% HPβCD and administered intravenously (IV) based on an average body weight using a 0.2 mL dosing volume. Final dose of I-263a received was 7.5 mg/kg. […]

[3] = I-263a 7.5 mg/kg IV BIW 3 weeks
[4] = tafasitamab 3 mg/kg IP BIW 3 weeks
[5] = tafasitamab 10 mg/kg IP BIW 3 weeks
[6] = tafasitamab 20 mg/kg IP BIW 3 weeks

Row | Molecule | tumor growth inhibition as a single agent (in words) [1] | GRI % ([1]; I-263a 7.5 mg/kg IV BIW) [%] | Tumor volume on Day 21 (±SEM) [1, 3] | GRI % ([2]; I-263a 7.5 mg/kg IV BIW) [%] | Tumor volume on Day 25 (±SEM) [2, 3] | tumor growth inhibition as a single agent (in words) [2] | GRI % ([1]; tafasitamab 3 mg/kg IP BIW) [%] | GRI % ([1]; tafasitamab 10 mg/kg IP BIW) [%] | GRI % ([1]; tafasitamab 20 mg/kg IP BIW) [%] | Tumor volume on Day 21 (±SEM) [1, 4] | Tumor volume on Day 21 (±SEM) [1, 5] | Tumor volume on Day 21 (±SEM) [1, 6] | GRI % ([2]; tafasitamab 3 mg/kg IP BIW) [%] | GRI % ([2]; tafasitamab 10 mg/kg IP BIW) [%] | GRI % ([2]; tafasitamab 20 mg/kg IP BIW) [%] | Tumor volume on Day 25 (±SEM) [2, 4] | Tumor volume on Day 25 (±SEM) [2, 5] | Tumor volume on Day 25 (±SEM) [2, 6]
1 | Cc1sc(C(=O)c2cncnc2N[C@@H]2C[C@H](COS(N)(=O)=O)[C@@H](O)C2)cc1[C@@H]1NCCc2ccc(Cl)cc21 [Compound I-263a, [(1R,2S,4R)-4-{[5-({4-[(1R)-7-chloro-1,2,3,4-tetrahydroisoquinolin-1-yl]-5-methyl-2-thienyl}carbonyl)pyrimidin-4-yl]amino}-2-hydroxycyclopentyl]methyl sulfamate] | inhibits tumor growth | 32 | 1015.9 ± 137.9 | 55 | 615.9 ± 106.4 | inhibits tumor growth |  |  |  |  |  |  |  |  |  |  |  | 
2 | Tafasitamab: humanized monoclonal antibody that targets the antigen CD19, engineered in the IgG Fc-region to enhance ADCC; sequences in Table 1 | inhibits tumor growth |  |  |  |  | inhibits tumor growth | 24 | 28 | 38 | 1142 ± 135.1 | 1132.7 ± 116.5 | 835.2 ± 89.1 | 37 | 43 | 36 | 701 ± 94.2 | 745.1 ± 154.2 | 809.2 ± 129.1
